System: panel of cancer cell lines
Assay: Cell viability (CellTiter-Glo) dose-response across cancer cell line panel;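 note: after 72 h compound incubation with CellTiter-Glo ATP readout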
Type: cell-based, human
Conditions: Homo sapiens
Procedure, shortened: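 Dose–response viability screen of a CSN5 inhibitor in over 500 cancer lines. Compound exposure lasted 72 h at 37 °C and 5% CO2, starting 4 h post-seeding. ATP luminescence (CellTiter-Glo) was read, and EC50 was obtained by nonlinear regression of percent inhibition.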

- EC50 (MOLT-16, MOLT-16): 134 nM
- EC50 (MSTO-211H): 366 nM
- EC50 (MV4-11, MV-4-11): 74.8 nM
- EC50 (Malme-3M): 521 nM
- EC50 (MeWo): 279 nM
- EC50 (Mono-Mac-1, MONO-MAC-1): 233 nM
- EC50 (NALM-6, NALM-6): 432 nM
- EC50 (NB1, NB-1): 213 nM
- EC50 (NB-4, NB-4): 60.9 nM
- EC50 (NCI-H23, NCI-H23): 532 nM
- EC50 (NCI-H28, NCI-H28): 10800 nM
- EC50 (NCI-H82, NCI-H82): 89.6 nM
- EC50 (NCI-H146, NCI-H146): 240 nM
- EC50 (NCI-H211, NCI-H211): 2840 nM
- EC50 (NCI-H322, NCI-H322): 767 nM
- EC50 (NCI-H460, NCI-H460): 1460 nM
- EC50 (NCI-H520, NCI-H520): 4070 nM
- EC50 (NCI-H647, NCI-H647): 3220 nM
- EC50 (NCI-H650, NCI-H650): 424 nM
- EC50 (NCI-H661, NCI-H661): 174 nM
- EC50 (NCI-H747, NCI-H747): 2320 nM
- EC50 (NCI-H810, NCI-H810): 26.5 nM
- EC50 (NCI-H838, NCI-H838): 259 nM
- EC50 (NCI-H841, NCI-H841): 204 nM
- EC50 (NCI-H1048, NCI-H1048): 79.9 nM
- EC50 (NCI-H1299, NCI-H1299): 460 nM
- EC50 (NCI-H1339, NCI-H1339): 67 nM
- EC50 (NCI-H1341): 86.4 nM
- EC50 (NCI-H1355, NCI-H1355): 700 nM
- EC50 (NCI-H1373, NCI-H1373): 655 nM
- EC50 (NCI-H1437, NCI-H1437): 2820 nM
- EC50 (NCI-H1568, NCI-H1568): 680 nM
- EC50 (NCI-H1581, NCI-H1581): 296 nM
- EC50 (NCI-H1650, NCI-H1650): 5840 nM
- EC50 (NCI-H1666, NCI-H1666): 2270 nM
- EC50 (NCI-H1693, NCI-H1693): 541 nM
- EC50 (NCI-H1703, NCI-H1703): 32.1 nM
- EC50 (NCI-H1755, NCI-H1755): 3310 nM
- EC50 (NCI-H1792, NCI-H1792): 7900 nM
- EC50 (NCI-H1915, NCI-H1915): 1160 nM
- EC50 (NCI-H1975, NCI-H1975): 2710 nM
- EC50 (NCI-H2023, NCI-H2023): 376 nM
- EC50 (NCI-H2030, NCI-H2030): 402 nM
- EC50 (NCI-H2073, NCI-H2073): 399 nM
- EC50 (NCI-H2087, NCI-H2087): 493 nM
- EC50 (NCI-H2110, NCI-H2110): 238 nM
- EC50 (NCI-H2122, NCI-H2122): 335 nM
- EC50 (NCI-H2126, NCI-H2126): 15200 nM
- EC50 (NCI-H2170, NCI-H2170): 335 nM
- EC50 (NCI-H2172, NCI-H2172): 10700 nM
- EC50 (NCI-H2228, NCI-H2228): 1330 nM
- EC50 (NCI-H2286, NCI-H2286): 119 nM
- EC50 (NCI-H2444, NCI-H2444): 413 nM
- EC50 (NCI-H2452, NCI-H2452): 1810 nM
- EC50 (NCI-H3255, NCI-H3255): > 30000 nM
- EC50 (NCI-N87, NCI-N87): 2980 nM
- EC50 (NO36): 873 nM
- EC50 (NOMO-1, NOMO-1): 137 nM
- EC50 (NUGC-3, NUGC-3): 929 nM
- EC50 (OCI-AML-3, OCI-AML3): 93.3 nM
- EC50 (OCI-AML-5, OCI-AML5): 240 nM
- EC50 (OCI-Ly3, OCI-LY3): 112 nM
- EC50 (OCI-M1, OCI-M1): 34.3 nM
- EC50 (OUMS-23, OUMS-23): 970 nM
- EC50 (OV56, OV56): 387 nM
- EC50 (OVCAR-3, NIH:OVCAR-3): 304 nM
- EC50 (OVCAR-4, OVCAR-4): 789 nM
- EC50 (OVISE): 791 nM
- EC50 (P3HR-1, P3HR-1): 283 nM
- EC50 (P12-Ichikawa): 208 nM
- EC50 (P31-FUJ, P31/FUJ): 285 nM
- EC50 (PANC-1, PANC-1): 3930 nM
- EC50 (PANC-03-27, Panc 03.27): 401 nM
- EC50 (PC-3, PC-3): 570 nM
- EC50 (PC-14, PC-14): 884 nM
- EC50 (PE/CA-PJ34 (clone C12)): 86.1 nM
- EC50 (PE/CA-PJ49): 297 nM
- EC50 (PF-382, PF-382): 216 nM
- EC50 (PK-1, PK-1): 1370 nM
- EC50 (PK-45H): 1610 nM
- EC50 (PK-59, PK-59): 2030 nM
- EC50 (PL45, PL45): 305 nM
- EC50 (PL-21, PL-21): 136 nM
- EC50 (PLC-PRF-5, PLC/PRF/5): 3760 nM
- EC50 (PSN1, PSN1): 1190 nM
- EC50 (PaTu 8902, PA-TU-8902): 898 nM
- EC50 (PaTu 8988s, PA-TU-8988S): 12200 nM
- EC50 (PaTu 8988t, PA-TU-8988T): 888 nM
- EC50 (Panc 02.03, Panc 02.03): 3430 nM
- EC50 (Panc 04.03, Panc 04.03): 245 nM
- EC50 (Panc1005, Panc 10.05): 368 nM
- EC50 (RCM-1, RCM-1): 8840 nM
- EC50 (RD): 722 nM
- EC50 (RD-ES): 162 nM
- EC50 (RERF-LC-AI): 437 nM
- EC50 (RERF-LC-MS): 719 nM
- EC50 (RKN): 342 nM
- EC50 (RKO): 163 nM
- EC50 (RMUG-S): 4130 nM
- EC50 (RPMI 8402, RPMI-8402): 92 nM
- EC50 (RPMI-7951, RPMI-7951): 1020 nM
- EC50 (RT-112, RT-112): 851 nM
- EC50 (RVH-421, RVH-421): 727 nM
- EC50 (Rh41, RH-41): 32.4 nM
- EC50 (SCC-25, SCC-25): 561 nM
- EC50 (SCaBER): 3560 nM
- EC50 (SEM): 487 nM
- EC50 (SF8657): > 30000 nM
- EC50 (SF-268, SF-268): 472 nM
- EC50 (SH-4, SH-4): 147 nM
- EC50 (SH-10-TC): 19100 nM
- EC50 (SH-SY5Y): 561 nM
- EC50 (SJRH30, SJRH30): 72.9 nM
- EC50 (SK-CO-1, SK-CO-1): 258 nM
- EC50 (SK-ES1, SK-ES-1): 177 nM
- EC50 (SK-HEP1, SK-HEP-1): 384 nM
- EC50 (SK-LU-1, SK-LU-1): 915 nM
- EC50 (SK-MEL3, SK-MEL-3): 722 nM
- EC50 (SK-MEL-2, SK-MEL-2): 370 nM
- EC50 (SK-MEL-5, SK-MEL-5): 552 nM
- EC50 (SK-MEL-28, SK-MEL-28): 603 nM
- EC50 (SK-MEL-30, SK-MEL-30): 418 nM
- EC50 (SK-MES-1, SK-MES-1): 725 nM
- EC50 (SK-N-SH): 1140 nM
- EC50 (SK-OV-3, SK-OV-3): 1440 nM
- EC50 (SKM-1, SKM-1): 85.6 nM
- EC50 (SKNBE2, SK-N-BE(2)): 334 nM
- EC50 (SNB-19, SNB-19): 626 nM
- EC50 (SNG-M): 249 nM
- EC50 (SNU668, SNU-668): 1520 nM
- EC50 (SNU878, SNU-878): 746 nM
- EC50 (SNU-8): 552 nM
- EC50 (SNU-16, SNU-16): 272 nM
- EC50 (SNU-61): 19000 nM
- EC50 (SNU-81): 175 nM
- EC50 (SNU-175): 317 nM
- EC50 (SNU-213): 2080 nM
- EC50 (SNU-324): 685 nM
- EC50 (SNU-349): 319 nM
- EC50 (SNU-387, SNU-387): 3860 nM
- EC50 (SNU-398, SNU-398): 294 nM
- EC50 (SNU-410): 351 nM
- EC50 (SNU-423, SNU-423): 620 nM
- EC50 (SNU-449, SNU-449): 3540 nM
- EC50 (SNU-475, SNU-475): 2310 nM
SMILES: NS(=O)(=O)OC[C@@H]1C[C@@H](n2ccc3c(N[C@H]4CCc5ccccc54)ncnc32)C[C@@H]1O [MLN4924]

Source: PMC5078989, “Targeted inhibition of the COP9 signalosome for treatment of cancer” (Nature Communications, 2016)
